Read-outs that look alike come from different tables or passages of the source.
Legend:
Type in all cases: binding
[1] = target: T1, CIB1 and αIIb interaction (GST-CIB1 : F-αIIb peptide) (Homo sapiens, UniProt Q99828); assay: FP assay, 384-well format (screen); design: 384-well SCREEN Efficacy (%): concentration or dose not given beside the values; settings: F-αIIb peptide; for 384-well SCREEN Confirm?: YES/NO; for IC50: read-out: 384-well SCREEN IC50
T1 construct: made in house; host or cells: BL-21 plus RIL cells (E. coli)
T1 sequence (Q99828 1-191): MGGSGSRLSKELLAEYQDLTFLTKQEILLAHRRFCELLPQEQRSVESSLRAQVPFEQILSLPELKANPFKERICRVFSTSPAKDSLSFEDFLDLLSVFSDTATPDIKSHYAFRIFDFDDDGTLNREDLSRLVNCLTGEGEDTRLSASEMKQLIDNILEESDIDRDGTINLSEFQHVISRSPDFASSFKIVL

[2] = target: T2, GST-CIB1 : F-scrambled peptide (Homo sapiens, UniProt Q99828); assay: FP scrambled-peptide counter screen, 1536-well format; settings: for COUNTERSCREEN Confirm?: YES/NO call; for COUNTERSCREEN Curve Class: qHTS curve class; for IC50: read-out: COUNTERSCREEN IC50
T2 construct: made in house; host or cells: BL-21 plus RIL cells (E. coli)
T2 sequence (Q99828 1-191): T1 sequence (Q99828 1-191)

[3] = target: T2, GST-CIB1 : F-scrambled peptide; assay: FP scrambled-peptide counter screen, 384-well format; settings: F-scrambled peptide; for IC50: read-out: 384-well COUNTERSCREEN IC50; for 384-well COUNTERSCREEN Confirm?: *: Curve in opposite direction
[4] = target: T3, CIB1 and αIIb interaction (CIB1-GST : F-αIIb peptide) (Homo sapiens, UniProt Q99828); assay: FP assay, 1536-well qHTS format (primary and confirmatory screen); settings: for CONFIRMATORY SCREEN Confirm?: YES/NO call; for CONFIRMATORY SCREEN Curve Class: qHTS curve class; for CONFIRMATORY SCREEN Curve Class / Curve Class: negative sign = inhibitory curve
T3 construct: made in house; host or cells: BL-21 plus RIL cells (E. coli)
T3 sequence (Q99828 1-191): T1 sequence (Q99828 1-191)

[5] = scrambled-peptide counterscreen
[6] = confirmatory screen, negative = inhibition
[7] = qHTS primary screen hits, Table S2, negative = inhibition
[8] = qHTS primary screen hits, Table S2
[9] = confirmatory screen, read-out: CONFIRMATORY SCREEN IC50
[10] = qHTS FP screen hits, Table S2, negative = inhibition
[11] = qHTS FP screen hits, Table S2, read-out: IC50
[12] = qHTS primary screen hits, Table S2, read-out: IC50
[13] = qHTS primary screen hits, Table S2, several classes where COUNT > 1

| Structure (SMILES) | 384-well SCREEN Efficacy (%) [1] [%] | 384-well SCREEN Confirm? [1] | IC50 [1] [µM] | COUNTERSCREEN Efficacy (%) [2, 5] [%] | COUNTERSCREEN Confirm? [2, 5] | COUNTERSCREEN Curve Class [2, 5] | 384-well COUNTERSCREEN Efficacy (%) [3] [%] | IC50 [3] [µM] | CONFIRMATORY SCREEN Confirm? ([4]; confirmatory screen) | CONFIRMATORY SCREEN Curve Class ([4]; confirmatory screen) | CONFIRMATORY SCREEN Efficacy (%) [4, 6] [%] | Efficacy (%) [4, 7] [%] | Curve Class [4, 8] | IC50 [4, 9] [µM] | 384-well COUNTERSCREEN Confirm? [3] | IC50 [4, 12] [µM] | further results |
| --- | --- | --- | --- | --- | --- | --- | --- | --- | --- | --- | --- | --- | --- | --- | --- | --- | --- |
| Cc1csc(CNc2ncnc3ccc(-c4ccc(CO)o4)cc23)n1.O=C(O)C(F)(F)F [NCGC00229623-01] | 70 | YES | 35.5 | -25 | YES | 4 | 39 | 25.1 | YES | -3 | -83 | -60 | -2.2 |  |  |  |  |
| O=C(O)C(F)(F)F.O=C(O)c1ccc(-c2ccc3ncnc(NCc4nccs4)c3c2)o1 [NCGC00229620-01] | 40 | YES | 17.8 | -21 | YES | 4 | 48 | 31.6 | YES | -2.4 | -55 |  |  | 44.7 |  |  | Efficacy (%) [4, 10]: -25%; IC50 [4, 11]: 10 µM |
| O=C(O)C(F)(F)F.O=c1c2ccccc2nc2sc(NS(=O)(=O)c3ccc4c(c3)CCC4)nn12 [NCGC00187579-01] | 43 | YES | 44.7 | 62 | YES |  | 28 | > 120 | YES | -1.2 | -35 | -32 | -1.4 | 6.3 | YES | 2.8 | IC50 [2, 5]: 35.5 µM |
| Cc1ccc(S(=O)(=O)Nc2cnccc2C(=O)Nc2nc3ccccc3s2)cc1.O=C(O)C(F)(F)F [NCGC00343897-01] | 30 | YES | 12.6 | 17 | YES | 4 | 16 | > 120 | YES | -1.4 | -52 | -44 |  | 10 | YES | 31.6 | Curve Class [4, 13]: -1.2 |
| CCCCCCCCOc1ccccc1C(=O)Nc1ccc(C(=O)OCC[N+](C)(CC)CC)cc1.[Br-] [NCGC00163507-02] | 69 | YES | 12.6 | 0 | YES | 4 | 39 | > 120 | YES | -3 | -60 |  |  | 39.8 | YES |  |  |
| O=C(Nc1nc(-c2ccccc2)cs1)c1ccncc1NS(=O)(=O)c1ccc2ccccc2c1.O=C(O)C(F)(F)F [NCGC00345031-01] | 47 | YES |  |  | YES | 3 | 81 | 28.2 | YES | -1.4 |  | -53 | -2.2 | 20 | YES* | 39.8 | COUNTERSCREEN Efficacy (%) [2]: 0%; CONFIRMATORY SCREEN Efficacy (%) [4]: -84% |
| Brc1c(Br)c(Br)c2[nH]nnc2c1Br [NCGC00092352-04, 4,5,6,7-tetrabromobenzotriazole, reference compound] | 40 | YES | 4.7 | 79 | YES | 3 | 35 | > 120 | YES | -1.2 | -43 |  |  | 2.8 | YES |  | IC50 [2, 5]: 79.4 µM; IC50 ([4]; 1536-well qHTS of 14,782 compounds, read-out: intraplate control IC50): ~10.7 µM; IC50 ([4]; 1536-well, LOPAC1280 pilot screen, 0.85 μM GST-CIB1, 100 nM F-αIIb, RT 15 minutes): double-digit micromolar inhibitor; Efficacy (%) [4, 10]: -49%; Curve Class ([4]; qHTS FP screen hits, Table S2, one class per curve where COUNT > 1): -1.2; IC50 [4, 11]: 14.1 µM |
| CCCCCc1c2c(cc(O)c1C(=O)O)OC(=O)c1c(cc(OC)cc1C(=O)CCCC)O2.O=C(O)C(F)(F)F [NCGC00095570-05] | 38 | YES | 8.9 | -14 | YES | 4 | 58 | 50.1 | YES | -1.2 | -60 | -33 |  | 11.2 | YES | 12.6 | Curve Class [4, 13]: -1.4 |

From paper PMC11249646, “Small-Molecule Disruptors of the Interaction between Calcium- and Integrin-Binding Protein 1 and Integrin αIIbβ3 as Novel Antiplatelet Agents” (ACS Pharmacology & Translational Science, 2024)
